Source: ChEMBL document CHEMBL1201862, “PubChem BioAssay data set” (2004)
Calls of active or inactive are those of the source.

How the values were obtained:
[1] = molecular target: ADP-ribosylation factor GTPase-activating protein 1 (Rattus norvegicus, UniProt Q62848); experiment: Fluorescence polarization-based biochemical high throughput dose response screening assay to identify inhibitors of ADP-ribosylation factor GTPase activating protein 1 (ARFGAP1).; format: functional
[2] = molecular target: T1, Tyrosine-protein phosphatase non-receptor type 5 (Homo sapiens, UniProt P54829); experiment: STEP phosphatase inhibitors, confirmation, biochemical, fluorescence intensity, uHTS hits (AID 602372); format: functional; conditions: read-out: IC50_Mean
T1 sequence (P54829 whole entry): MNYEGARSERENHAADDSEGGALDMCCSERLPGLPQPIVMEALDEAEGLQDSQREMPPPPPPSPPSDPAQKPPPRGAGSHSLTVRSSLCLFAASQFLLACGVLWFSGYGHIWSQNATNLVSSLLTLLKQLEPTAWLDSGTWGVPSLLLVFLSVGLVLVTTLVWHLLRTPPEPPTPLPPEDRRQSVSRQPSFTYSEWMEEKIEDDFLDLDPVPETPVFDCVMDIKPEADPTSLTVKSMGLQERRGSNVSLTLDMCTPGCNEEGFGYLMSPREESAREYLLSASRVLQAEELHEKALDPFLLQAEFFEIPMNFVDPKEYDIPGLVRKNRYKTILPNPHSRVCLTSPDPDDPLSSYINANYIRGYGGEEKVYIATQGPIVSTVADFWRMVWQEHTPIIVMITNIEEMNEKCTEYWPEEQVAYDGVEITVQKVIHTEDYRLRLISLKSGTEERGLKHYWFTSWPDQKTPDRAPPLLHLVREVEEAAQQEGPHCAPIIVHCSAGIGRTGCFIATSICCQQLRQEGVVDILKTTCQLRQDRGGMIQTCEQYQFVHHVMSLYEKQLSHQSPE

[3] = molecular target: T2, Tyrosine-protein phosphatase non-receptor type 11 (Homo sapiens, UniProt Q06124); experiment: SHP2 phosphatase inhibition, dose response, selectivity assay for STEP inhibitor project, biochemical (AID 602367); format: functional; conditions: read-out: IC50_Mean
T2 sequence (Q06124 whole entry): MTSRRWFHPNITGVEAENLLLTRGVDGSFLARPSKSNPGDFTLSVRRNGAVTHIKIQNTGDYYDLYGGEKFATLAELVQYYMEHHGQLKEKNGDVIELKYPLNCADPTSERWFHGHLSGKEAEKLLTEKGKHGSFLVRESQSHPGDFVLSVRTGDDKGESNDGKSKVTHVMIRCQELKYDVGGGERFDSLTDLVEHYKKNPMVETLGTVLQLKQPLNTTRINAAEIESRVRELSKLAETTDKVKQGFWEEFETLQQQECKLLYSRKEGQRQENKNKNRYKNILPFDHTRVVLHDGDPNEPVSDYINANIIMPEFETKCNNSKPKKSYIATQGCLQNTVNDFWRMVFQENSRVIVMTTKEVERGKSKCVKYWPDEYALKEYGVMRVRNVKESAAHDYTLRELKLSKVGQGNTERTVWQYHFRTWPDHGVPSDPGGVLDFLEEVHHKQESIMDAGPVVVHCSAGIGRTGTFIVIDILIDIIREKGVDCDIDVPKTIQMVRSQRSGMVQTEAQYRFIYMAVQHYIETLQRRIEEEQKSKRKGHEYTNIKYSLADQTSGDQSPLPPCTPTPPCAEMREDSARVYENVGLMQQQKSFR

[4] = molecular target: G-protein coupled receptor 55 (Homo sapiens, UniProt Q9Y2T6); experiment: GPR55 antagonists blocking LPI-driven arrestin recruitment, primary screen, imaging, U2OS, beta-arrestin-GFP, LPI agonist (AID 2013); format: functional;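 further: antagonist potency measured as reduced agonist-driven arrestin aggregation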
[5] = molecular target: Dual specificity protein phosphatase 3 (Homo sapiens, UniProt P51452); experiment: VHR phosphatase inhibition, dose response, selectivity assay for STEP inhibitor project, biochemical (AID 602374); format: functional; conditions: read-out: IC50_Mean
[6] = molecular target: Tyrosine-protein phosphatase non-receptor type 22 (Homo sapiens, UniProt Q9Y2R2); experiment: PTPN22 phosphatase inhibition, dose response, selectivity assay for STEP inhibitor project, biochemical (AID 624241); format: functional
[7] = molecular target: T3, Rac GTPase-activating protein 1 (Homo sapiens, UniProt Q9H0H5); experiment: MgcRacGAP GTPase-activating activity inhibitors, confirmation, biochemical, ADP Hunter fluorescence, primary and confirmatory (AID 624330); format: functional
T3 sequence (Q9H0H5 whole entry): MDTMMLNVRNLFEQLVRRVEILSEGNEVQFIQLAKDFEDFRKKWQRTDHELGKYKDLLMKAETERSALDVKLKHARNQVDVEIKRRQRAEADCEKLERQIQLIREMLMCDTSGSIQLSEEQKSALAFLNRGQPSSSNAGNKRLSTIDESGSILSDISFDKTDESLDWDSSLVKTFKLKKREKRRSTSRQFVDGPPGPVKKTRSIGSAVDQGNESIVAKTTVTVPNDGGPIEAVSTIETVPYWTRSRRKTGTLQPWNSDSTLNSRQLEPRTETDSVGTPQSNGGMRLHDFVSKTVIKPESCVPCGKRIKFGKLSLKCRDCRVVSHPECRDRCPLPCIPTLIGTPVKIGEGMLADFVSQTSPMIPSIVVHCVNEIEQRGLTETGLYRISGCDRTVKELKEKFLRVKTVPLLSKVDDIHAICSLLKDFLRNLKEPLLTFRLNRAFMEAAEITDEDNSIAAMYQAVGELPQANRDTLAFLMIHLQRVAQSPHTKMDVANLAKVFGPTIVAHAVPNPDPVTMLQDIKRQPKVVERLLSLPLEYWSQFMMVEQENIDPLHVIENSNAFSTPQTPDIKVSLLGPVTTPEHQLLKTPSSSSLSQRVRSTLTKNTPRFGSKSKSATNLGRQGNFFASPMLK

Nonstructural protein 1 = Nonstructural protein 1 (Influenza A virus, UniProt Q194T2); format: functional, Influenza A virus (A/California/07/2009(H1N1))
[8] = HeLa cell cytotoxicity, dose response, cytotoxicity control for MgcRacGAP inhibitor project (AID 624300); format: functional
[9] = Counterscreen for inhibitors of Trypanosoma brucei methionyl tRNA synthetase (MetRS): Luminescence-based cell-based high throughput dose response assay to identify compounds that are cytotoxic to Jurkat human T lymphocyte cells.; format: functional; conditions: Homo sapiens, Jurkat
[10] = molecular target: T4, Methionyl-tRNA synthetase, putative (Trypanosoma brucei brucei, UniProt Q38C91); format: functional, Trypanosoma brucei brucei strain 927/4 GUTat10.1
T4 sequence (Q38C91 whole entry): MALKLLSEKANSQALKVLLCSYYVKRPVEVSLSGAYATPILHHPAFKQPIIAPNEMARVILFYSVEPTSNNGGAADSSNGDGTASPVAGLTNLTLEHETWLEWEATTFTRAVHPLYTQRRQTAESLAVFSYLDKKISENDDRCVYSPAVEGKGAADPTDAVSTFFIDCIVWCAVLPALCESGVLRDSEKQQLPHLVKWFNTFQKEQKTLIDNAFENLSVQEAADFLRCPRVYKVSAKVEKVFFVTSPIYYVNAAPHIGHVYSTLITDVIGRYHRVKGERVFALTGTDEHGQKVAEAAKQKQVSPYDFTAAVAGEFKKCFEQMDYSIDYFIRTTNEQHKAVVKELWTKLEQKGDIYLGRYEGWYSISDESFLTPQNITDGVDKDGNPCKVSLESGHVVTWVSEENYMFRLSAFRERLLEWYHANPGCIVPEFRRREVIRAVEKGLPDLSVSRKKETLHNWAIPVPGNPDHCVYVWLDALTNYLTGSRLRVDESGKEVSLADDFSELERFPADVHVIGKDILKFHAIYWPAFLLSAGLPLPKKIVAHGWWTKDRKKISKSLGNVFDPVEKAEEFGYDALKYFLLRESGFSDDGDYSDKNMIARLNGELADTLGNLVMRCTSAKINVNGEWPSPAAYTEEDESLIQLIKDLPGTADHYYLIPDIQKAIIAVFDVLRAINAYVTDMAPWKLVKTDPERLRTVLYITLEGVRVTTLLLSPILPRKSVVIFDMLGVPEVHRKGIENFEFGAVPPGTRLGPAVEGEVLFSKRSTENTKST

[11] = molecular target: T4, Methionyl-tRNA synthetase, putative; format: functional, Trypanosoma brucei brucei strain 927/4 GUTat10.1; remark: listed apart in the source
[12] = Vero E6 cell cytotoxicity, dose response, cytotoxicity control for non-replicating M. tuberculosis project, secondary assay (AID 492998); format: functional, VeroE6; conditions: Vero C1008
[13] = Fluorescence-based cell-based high throughput dose response assay for inhibitors of the interaction of nucleotide-binding oligomerization domain containing 2 (NOD2) and the receptor-interacting serine-threonine kinase 2 (RIPK2).; format: functional; conditions: Homo sapiens
[14] = molecular target: T5, Replicative DNA helicase DnaB (Mycobacterium tuberculosis, UniProt P9WMR3); experiment: DnaB intein splicing inhibitors, dose response, biochemical, cell-free fluorescence (AID 449749); format: functional
T5 sequence (P9WMR3 whole entry): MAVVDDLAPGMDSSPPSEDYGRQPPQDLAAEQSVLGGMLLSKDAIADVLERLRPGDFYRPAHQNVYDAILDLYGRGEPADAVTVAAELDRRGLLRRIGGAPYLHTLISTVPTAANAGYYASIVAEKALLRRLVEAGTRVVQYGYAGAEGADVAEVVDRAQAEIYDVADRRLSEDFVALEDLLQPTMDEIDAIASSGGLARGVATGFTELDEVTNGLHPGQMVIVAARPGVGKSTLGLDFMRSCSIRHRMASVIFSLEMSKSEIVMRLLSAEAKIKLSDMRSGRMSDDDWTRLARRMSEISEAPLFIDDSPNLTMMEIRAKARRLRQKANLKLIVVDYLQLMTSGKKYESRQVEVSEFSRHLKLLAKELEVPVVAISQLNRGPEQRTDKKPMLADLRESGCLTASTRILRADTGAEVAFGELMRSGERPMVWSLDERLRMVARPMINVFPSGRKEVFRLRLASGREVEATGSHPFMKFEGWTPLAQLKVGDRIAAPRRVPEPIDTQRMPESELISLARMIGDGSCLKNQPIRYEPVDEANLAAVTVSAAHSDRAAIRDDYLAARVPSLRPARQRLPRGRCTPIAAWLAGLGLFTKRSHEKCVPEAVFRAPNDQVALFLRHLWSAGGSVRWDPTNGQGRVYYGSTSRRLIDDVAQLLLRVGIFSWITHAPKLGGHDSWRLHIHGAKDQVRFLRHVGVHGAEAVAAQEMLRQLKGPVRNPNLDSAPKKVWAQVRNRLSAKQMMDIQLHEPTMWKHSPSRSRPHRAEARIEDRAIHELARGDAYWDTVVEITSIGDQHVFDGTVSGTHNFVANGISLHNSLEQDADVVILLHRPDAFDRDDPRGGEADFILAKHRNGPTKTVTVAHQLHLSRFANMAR

[15] = THP-1 cell cytotoxicity, dose response, cytotoxicity control for non-replicating M. tuberculosis project (AID 489025); format: functional
Protein RecA = molecular target: T6, Protein RecA (Mycobacterium tuberculosis, UniProt P9WHJ3); experiment: Fluorescence Cell-Free Homogeneous Dose Retest to Identify Inhibitors of RecA-Intein Splicing Activity. [Related pubchem assays (depositor defined):AID2097, AID2223, AID489010, AID492950]; format: functional
T6 sequence (P9WHJ3 whole entry): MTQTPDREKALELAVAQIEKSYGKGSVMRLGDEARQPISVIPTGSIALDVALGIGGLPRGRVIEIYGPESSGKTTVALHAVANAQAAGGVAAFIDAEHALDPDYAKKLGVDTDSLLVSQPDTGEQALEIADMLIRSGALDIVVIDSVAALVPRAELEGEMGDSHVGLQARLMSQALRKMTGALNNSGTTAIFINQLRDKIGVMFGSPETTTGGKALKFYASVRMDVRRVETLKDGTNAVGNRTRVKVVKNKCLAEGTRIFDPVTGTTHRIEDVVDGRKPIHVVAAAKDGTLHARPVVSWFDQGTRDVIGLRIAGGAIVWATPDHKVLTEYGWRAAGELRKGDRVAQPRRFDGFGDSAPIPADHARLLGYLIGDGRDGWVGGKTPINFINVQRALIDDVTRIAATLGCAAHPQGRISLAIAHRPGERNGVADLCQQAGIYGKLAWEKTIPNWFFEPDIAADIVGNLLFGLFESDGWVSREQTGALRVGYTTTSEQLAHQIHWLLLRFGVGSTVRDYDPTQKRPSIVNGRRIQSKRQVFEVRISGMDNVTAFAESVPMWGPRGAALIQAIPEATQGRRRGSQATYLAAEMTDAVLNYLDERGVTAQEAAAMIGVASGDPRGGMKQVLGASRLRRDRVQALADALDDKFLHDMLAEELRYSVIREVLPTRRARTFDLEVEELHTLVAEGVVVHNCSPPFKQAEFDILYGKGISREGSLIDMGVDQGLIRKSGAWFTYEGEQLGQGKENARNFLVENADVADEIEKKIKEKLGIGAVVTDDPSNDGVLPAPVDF

cells = format: functional
[16] = molecular target: T7, Low molecular weight phosphotyrosine protein phosphatase (Homo sapiens, UniProt P24666); format: functional; conditions: read-out: IC50_Mean
T7 sequence (P24666 whole entry): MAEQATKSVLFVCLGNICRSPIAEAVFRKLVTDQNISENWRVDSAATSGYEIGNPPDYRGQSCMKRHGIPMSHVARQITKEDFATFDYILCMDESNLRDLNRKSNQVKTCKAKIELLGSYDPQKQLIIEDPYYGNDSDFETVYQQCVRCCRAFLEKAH

Chain of ADP-ribosylation factor GTPase-activating protein 1 (Q62848 whole entry): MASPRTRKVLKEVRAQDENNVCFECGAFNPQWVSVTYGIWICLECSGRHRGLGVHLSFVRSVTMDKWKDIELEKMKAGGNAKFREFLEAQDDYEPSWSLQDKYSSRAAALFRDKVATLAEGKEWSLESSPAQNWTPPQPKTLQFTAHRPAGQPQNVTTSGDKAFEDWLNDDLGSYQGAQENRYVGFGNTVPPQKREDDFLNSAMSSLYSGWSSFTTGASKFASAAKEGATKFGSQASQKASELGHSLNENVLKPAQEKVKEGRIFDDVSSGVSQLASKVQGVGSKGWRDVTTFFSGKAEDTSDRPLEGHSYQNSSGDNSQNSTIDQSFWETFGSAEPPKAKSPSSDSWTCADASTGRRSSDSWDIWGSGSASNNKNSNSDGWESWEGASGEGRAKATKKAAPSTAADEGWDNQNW
Chain of Tyrosine-protein phosphatase non-receptor type 22 (Q9Y2R2 whole entry): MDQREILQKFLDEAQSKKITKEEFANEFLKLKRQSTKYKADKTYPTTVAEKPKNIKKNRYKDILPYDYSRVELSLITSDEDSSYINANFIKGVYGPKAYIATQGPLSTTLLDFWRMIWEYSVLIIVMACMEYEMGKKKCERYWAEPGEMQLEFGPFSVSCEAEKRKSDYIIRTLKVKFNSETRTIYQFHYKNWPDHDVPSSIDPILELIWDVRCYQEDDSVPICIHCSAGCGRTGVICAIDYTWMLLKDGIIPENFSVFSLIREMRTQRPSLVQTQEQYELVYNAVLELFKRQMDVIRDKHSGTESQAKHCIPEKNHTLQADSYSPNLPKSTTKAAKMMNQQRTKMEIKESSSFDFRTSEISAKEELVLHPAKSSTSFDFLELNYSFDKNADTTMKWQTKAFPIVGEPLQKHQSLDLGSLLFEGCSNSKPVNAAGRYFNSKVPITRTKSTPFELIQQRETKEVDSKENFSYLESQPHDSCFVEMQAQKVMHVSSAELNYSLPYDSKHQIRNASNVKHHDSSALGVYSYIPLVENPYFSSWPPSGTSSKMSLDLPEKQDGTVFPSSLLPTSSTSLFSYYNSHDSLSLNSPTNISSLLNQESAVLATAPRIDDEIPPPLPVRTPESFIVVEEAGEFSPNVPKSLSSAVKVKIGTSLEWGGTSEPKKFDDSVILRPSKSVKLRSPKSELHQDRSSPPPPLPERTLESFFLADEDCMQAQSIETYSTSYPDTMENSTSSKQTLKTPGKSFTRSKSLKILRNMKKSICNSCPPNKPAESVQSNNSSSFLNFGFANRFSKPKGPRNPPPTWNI
Chain of Nonstructural protein 1 (Q194T2 whole entry): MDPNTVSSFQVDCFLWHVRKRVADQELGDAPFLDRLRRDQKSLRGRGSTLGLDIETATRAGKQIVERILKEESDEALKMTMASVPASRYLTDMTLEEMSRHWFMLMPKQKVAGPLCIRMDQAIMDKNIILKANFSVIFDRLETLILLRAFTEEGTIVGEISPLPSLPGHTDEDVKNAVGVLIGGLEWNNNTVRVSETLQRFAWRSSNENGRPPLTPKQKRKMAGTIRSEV
Chain of G-protein coupled receptor 55 (Q9Y2T6 whole entry): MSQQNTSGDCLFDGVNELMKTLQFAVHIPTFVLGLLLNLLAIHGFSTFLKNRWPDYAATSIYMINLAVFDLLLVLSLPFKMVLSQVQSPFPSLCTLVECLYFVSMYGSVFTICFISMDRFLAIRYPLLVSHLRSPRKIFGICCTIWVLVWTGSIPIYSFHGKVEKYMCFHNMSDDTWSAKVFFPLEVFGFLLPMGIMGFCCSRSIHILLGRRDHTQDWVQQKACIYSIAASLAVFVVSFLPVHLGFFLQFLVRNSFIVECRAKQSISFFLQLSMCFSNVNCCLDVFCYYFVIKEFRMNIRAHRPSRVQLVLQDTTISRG
Chain of Dual specificity protein phosphatase 3 (P51452 whole entry): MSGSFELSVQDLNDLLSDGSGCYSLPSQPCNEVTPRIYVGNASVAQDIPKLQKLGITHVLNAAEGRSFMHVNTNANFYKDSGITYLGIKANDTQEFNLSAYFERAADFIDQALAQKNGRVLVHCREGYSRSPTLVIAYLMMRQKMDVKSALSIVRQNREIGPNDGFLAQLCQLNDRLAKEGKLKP

Compound: Cc1cc(OCC(=O)Nc2cccnc2)c2c(C)c(C)c(=O)oc2c1
- IC50 [1]: 64.9 µM (inactive)

Compound: COc1ccccc1NS(=O)(=O)c1cc(NC(=S)NCCN2CCOCC2)ccc1N1CCOCC1
- IC50 [2]: 8.37 µM (active)
- IC50 [3]: 0.891 µM (active)
- IC50 [4]: 3.2 µM (active)
- IC50 [5]: 0.498 µM (active)
- IC50 [6]: 31.4 µM (inactive)

Compound: COc1ccc2c(c1)-c1c(ssc1=S)C(C)(C)N2
- IC50 [7]: 29.4 µM (active)
- IC50 (Nonstructural protein 1): 22.7 µM (active)
- CC50 [8]: 100 µM (active)

Compound: O=S(=O)(c1ccc2[nH]c(SCc3ccc(Cl)cc3)nc2c1)N1CCOCC1
- IC50 [9]: 16.9 µM (inactive)

Compound: O=S(=O)(c1ccc2nc(SCc3ccc(Cl)cc3)[nH]c2c1)N1CCOCC1
- IC50 [10]: 32.3 µM (inactive)
- IC50 [11]: 30.8 µM (inactive)

Compound: Cc1noc2ncnc(Sc3ccccc3Cl)c12
- CC50 [12]: 16.9 µM (active)
- IC50 [13]: 4.4 µM (active)
- AC50 [14]: 12.2 µM (active)
- CC50 [15]: 20.2 µM (active)
- EC50 (Protein RecA): 4.04 µM (active)
- IC50 (cells): 9.99 µM (active)

Compound: NC(=S)NN=C1Cc2cccc3cccc1c23
- IC50 [16]: 4.94 µM (active)
